Assay results from ChEMBL document CHEMBL3045891, “Effects of three neem-based insecticides on diamondback moth (lepidoptera: plutellidae)” (2003).
Active and inactive are the calls of the source. No cut-off for these calls is given here.

Legend:
[1] = tested on: Plutella xylostella; assay: Insecticidal activity against third-instar of Plutella xylostella (diamondback moth) on cabbage leaves assessed as mortality after 5 days; assay type: functional, organism-based
[2] = tested on: Plutella xylostella; assay: Insecticidal activity against larvae of Plutella xylostella (diamondback moth) on cabbage leaves after 5 days; assay type: functional, organism-based
[3] = tested on: Plutella xylostella; assay: Reduction of oviposition in adult Plutella xylostella (diamondback moth) in aluminium foil assessed as number of egg oviposited after 24 hr by two choice test; assay type: functional, organism-based
[4] = tested on: Plutella xylostella; assay: Reduction of oviposition in adult Plutella xylostella (diamondback moth) in cabbage leaves assessed as number of egg oviposited after 24 hr by two choice test; assay type: functional, organism-based
[5] = tested on: Plutella xylostella; assay: Reduction of oviposition in adult Plutella xylostella (diamondback moth) in aluminium foil assessed as number of egg oviposited after 24 hr by no choice test; assay type: functional, organism-based
[6] = tested on: Plutella xylostella; assay: Reduction of oviposition in adult Plutella xylostella (diamondback moth) in cabbage leaves assessed as number of egg oviposited after 24 hr by no choice test; assay type: functional, organism-based
[7] = tested on: Plutella xylostella; assay: Antifeedant activity against fourth-instar of Plutella xylostella (diamondback moth) on cabbage leaves assessed as leaf disks damage; assay type: functional
[8] = tested on: Plutella xylostella; assay: Antifeedant activity against second-instar of Plutella xylostella (diamondback moth) on cabbage leaves assessed as leaf disks damage; assay type: functional
[9] = tested on: Plutella xylostella; assay: Antifeedant activity against third-instar of Plutella xylostella (diamondback moth) on cabbage leaves assessed as leaf disks damage; assay type: functional
[10] = tested on: Plutella xylostella; assay: Antifeedant activity against neonates of Plutella xylostella (diamondback moth) on cabbage leaves assessed as leaf disks damage; assay type: functional
[11] = tested on: Plutella xylostella; assay: Antifeedant activity against larvae of Plutella xylostella (diamondback moth) on cabbage leaves assessed as diameter of larvae after 5 days; assay type: functional
[12] = tested on: Plutella xylostella; assay: Antifeedant activity against larvae of Plutella xylostella (diamondback moth) on cabbage leaves assessed as length of larvae after 5 days; assay type: functional
[13] = tested on: Plutella xylostella; assay: Antifeedant activity against larvae of Plutella xylostella (diamondback moth) on cabbage leaves assessed as weight of larvae after 5 days; assay type: functional
[14] = tested on: Plutella xylostella; assay: Insecticidal activity against Plutella xylostella (diamondback moth) eggs on cabbage leaves assessed as eggs developed to neonates after 5 days relative to control; assay type: functional
[15] = tested on: Plutella xylostella; assay: Insecticidal activity against third-instar of Plutella xylostella (diamondback moth) on cabbage leaves assessed as survival after 3 days; assay type: functional
[16] = tested on: Plutella xylostella; assay: Insecticidal activity against neonates of Plutella xylostella (diamondback moth) on cabbage leaves assessed as survival after 5 days; assay type: functional

For `C/C=C(\C)C(=O)O[C@H]1C[C@@H](OC(C)=O)[C@@]2(C(=O)OC)CO[C@H]3[C@@H](O)[C@@](C)([C@]45O[C@@]4(C)[C@@H]4C[C@H]5O[C@@H]5OC=C[C@@]54O)[C@H]4[C@]1(CO[C@]4(O)C(=O)OC)[C@@H]32` (stereo in doubt; form 1), which Activity [1] is on record?
The Activity was “Active”.

What about the Activity [2] of the same molecule?
The Activity was “Active”.

And the Activity [3]?
The Activity was “Active”.

And the Activity [4]?
Its Activity is “inactive”.

And the Activity [5]?
Its Activity is “inactive”.

What about the Activity [6] of the same molecule?
Its Activity is “inactive”.

How did the Activity [7] turn out when `C/C=C(\C)C(=O)O[C@H]1C[C@@H](OC(C)=O)[C@@]2(C(=O)OC)CO[C@H]3[C@@H](O)[C@@](C)([C@]45O[C@@]4(C)[C@@H]4C[C@H]5O[C@@H]5OC=C[C@@]54O)[C@H]4[C@]1(CO[C@]4(O)C(=O)OC)[C@@H]32` (stereo in doubt; form 1) [AZADIRACHTIN A] was run?
Its Activity is 10.1%.

And the Activity [8]?
The Activity was 2.1%.

What about the Activity [9] of the same molecule?
Its Activity is 5.1%.

What about the Activity [10] of the same molecule?
The Activity was “<=2%”.

What about the Activity [11] of the same molecule?
Its Activity is 2 mm.

And the Activity [12]?
Its Activity is 13.5 mm.

And the Activity [13]?
Its Activity is 0.013 mg.

What about the Activity [14] of the same molecule?
The Activity was 75.2%.

How did the Activity [1] turn out when `C/C=C(\C)C(=O)O[C@H]1C[C@@H](OC(C)=O)[C@@]2(C(=O)OC)CO[C@H]3[C@@H](O)[C@@](C)([C@]45O[C@@]4(C)[C@@H]4C[C@H]5O[C@@H]5OC=C[C@@]54O)[C@H]4[C@]1(CO[C@]4(O)C(=O)OC)[C@@H]32` (stereo in doubt; form 2) was run?
The Activity was “Active”.

What about the Activity [2] of the same molecule?
The Activity was “Active”.

What about the Activity [3] of the same molecule?
Its Activity is “Active”.

What about the Activity [4] of the same molecule?
The Activity was “inactive”.

What about the Activity [5] of the same molecule?
Its Activity is “inactive”.

And the Activity [6]?
The Activity was “inactive”.

`C/C=C(\C)C(=O)O[C@H]1C[C@@H](OC(C)=O)[C@@]2(C(=O)OC)CO[C@H]3[C@@H](O)[C@@](C)([C@]45O[C@@]4(C)[C@@H]4C[C@H]5O[C@@H]5OC=C[C@@]54O)[C@H]4[C@]1(CO[C@]4(O)C(=O)OC)[C@@H]32` (stereo in doubt; form 2) [AZADIRACHTIN A] was tested. Which Activity [11] did it give?
Its Activity is 2.5 mm.

And the Activity [12]?
Its Activity is 14.7 mm.

What about the Activity [13] of the same molecule?
Its Activity is 0.012 mg.

What about the Activity [14] of the same molecule?
The Activity was 66.2%.

Which Activity [1] does the source give for `C/C=C(\C)C(=O)O[C@H]1C[C@@H](OC(C)=O)[C@@]2(C(=O)OC)CO[C@H]3[C@@H](O)[C@@](C)([C@]45O[C@@]4(C)[C@@H]4C[C@H]5O[C@@H]5OC=C[C@@]54O)[C@H]4[C@]1(CO[C@]4(O)C(=O)OC)[C@@H]32` (stereo in doubt; form 3) here?
The Activity was “Active”.

What about the Activity [2] of the same molecule?
The Activity was “Active”.

What about the Activity [3] of the same molecule?
The Activity was “Active”.

And the Activity [4]?
Its Activity is “inactive”.

And the Activity [5]?
The Activity was “inactive”.

What about the Activity [6] of the same molecule?
Its Activity is “inactive”.

What does the source list for `C/C=C(\C)C(=O)O[C@H]1C[C@@H](OC(C)=O)[C@@]2(C(=O)OC)CO[C@H]3[C@@H](O)[C@@](C)([C@]45O[C@@]4(C)[C@@H]4C[C@H]5O[C@@H]5OC=C[C@@]54O)[C@H]4[C@]1(CO[C@]4(O)C(=O)OC)[C@@H]32` (stereo in doubt; form 3) [AZADIRACHTIN A]?
Activity [11]: 2.2 mm; Activity [12]: 14.8 mm; Activity [13]: 0.016 mg; Survival [15]: <60%; Survival [16]: 50%; Activity [14]: 61.6%
